Reference: publication PMC8333425, “Discovery of a dual Ras and ARF6 inhibitor from a GPCR endocytosis screen” (Nature Communications, 2021)

Tests used:
Test in all cases: KINOMEscan kinase binding assay
[1] = biological target: T1, 384 kinases from the human genome (Homo sapiens, UniProt Q9BVS4); settings: kinase RIOK2 (Entrez RIOK2)
T1 construct: purchased Eurofin/DiscoverX
Summary of the method: (§1)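 A panel of 384 human kinases was profiled by KINOMEscan binding in the presence of 10 µM compound. Kinase–ligand binding was given as percent of DMSO control, averaged from duplicates in a single run, with an S(10) selectivity score.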

[2] = biological target: T2, 384 kinases from the human genome (Homo sapiens, UniProt Q9UBF8); settings: kinase PIK4CB (Entrez PI4KB)
T2 construct: purchased Eurofin/DiscoverX
Summary of the method: as §1

[3] = biological target: T3, 384 kinases from the human genome (Homo sapiens, UniProt O94768); settings: kinase DRAK2 (Entrez STK17B)
T3 construct: purchased Eurofin/DiscoverX
Summary of the method: as §1

[4] = biological target: T4, 384 kinases from the human genome (Homo sapiens, UniProt Q9H2X6); settings: kinase HIPK2 (Entrez HIPK2)
T4 construct: purchased Eurofin/DiscoverX
Summary of the method: as §1

[5] = biological target: T5, 384 kinases from the human genome (Homo sapiens, UniProt P43405); settings: kinase SYK (Entrez SYK)
T5 construct: purchased Eurofin/DiscoverX
Summary of the method: as §1

[6] = biological target: T6, 384 kinases from the human genome (Homo sapiens, UniProt Q9H4B4); settings: kinase PLK3 (Entrez PLK3)
T6 construct: purchased Eurofin/DiscoverX
Summary of the method: as §1

[7] = biological target: T7, 384 kinases from the human genome (Homo sapiens, UniProt Q13557); settings: kinase CAMK2D (Entrez CAMK2D)
T7 construct: purchased Eurofin/DiscoverX
Summary of the method: as §1

[8] = biological target: T8, 384 kinases from the human genome (Homo sapiens, UniProt P30291); settings: kinase WEE1 (Entrez WEE1)
T8 construct: purchased Eurofin/DiscoverX
Summary of the method: as §1

[9] = biological target: T9, 384 kinases from the human genome (Homo sapiens, UniProt Q96RR4); settings: kinase CAMKK2 (Entrez CAMKK2)
T9 construct: purchased Eurofin/DiscoverX
Summary of the method: as §1

[10] = biological target: T10, 384 kinases from the human genome (Homo sapiens, UniProt Q9NWZ3); settings: kinase IRAK4 (Entrez IRAK4)
T10 construct: purchased Eurofin/DiscoverX
Summary of the method: as §1

[11] = biological target: T11, 384 kinases from the human genome (Homo sapiens, UniProt Q12851); settings: kinase MAP4K2 (Entrez MAP4K2)
T11 construct: purchased Eurofin/DiscoverX
Summary of the method: as §1

[12] = biological target: T12, 384 kinases from the human genome (Homo sapiens, UniProt Q92918); settings: kinase HPK1 (Entrez MAP4K1)
T12 construct: purchased Eurofin/DiscoverX
Summary of the method: as §1

[13] = biological target: T13, 384 kinases from the human genome (Homo sapiens, UniProt O00750); settings: kinase PIK3C2B (Entrez PIK3C2B)
T13 construct: purchased Eurofin/DiscoverX
Summary of the method: as §1

[14] = biological target: T14, 384 kinases from the human genome (Homo sapiens, UniProt P36897); settings: kinase TGFBR1 (Entrez TGFBR1)
T14 construct: purchased Eurofin/DiscoverX
Summary of the method: as §1

[15] = biological target: T15, 384 kinases from the human genome (Homo sapiens, UniProt P22694); settings: kinase PKAC-beta (Entrez PRKACB)
T15 construct: purchased Eurofin/DiscoverX
Summary of the method: as §1

[16] = biological target: T16, 384 kinases from the human genome (Homo sapiens, UniProt P53667); settings: kinase LIMK1 (Entrez LIMK1)
T16 construct: purchased Eurofin/DiscoverX
Summary of the method: as §1

[17] = biological target: T17, 384 kinases from the human genome (Homo sapiens, UniProt Q9UIK4); settings: kinase DAPK2 (Entrez DAPK2)
T17 construct: purchased Eurofin/DiscoverX
Summary of the method: as §1

[18] = biological target: T18, 384 kinases from the human genome (Homo sapiens, UniProt P42679); settings: kinase CTK (Entrez MATK)
T18 construct: purchased Eurofin/DiscoverX
Summary of the method: as §1

[19] = biological target: T19, 384 kinases from the human genome (Homo sapiens, UniProt P36507); settings: kinase MEK2 (Entrez MAP2K2)
T19 construct: purchased Eurofin/DiscoverX
Summary of the method: as §1

[20] = biological target: T20, 384 kinases from the human genome (Homo sapiens, UniProt Q9UKE5); settings: kinase TNIK (Entrez TNIK)
T20 construct: purchased Eurofin/DiscoverX
Summary of the method: as §1

[21] = biological target: T21, 384 kinases from the human genome (Homo sapiens, UniProt Q8N568); settings: kinase DCAMKL2 (Entrez DCLK2)
T21 construct: purchased Eurofin/DiscoverX
Summary of the method: as §1

[22] = biological target: T22, 384 kinases from the human genome (Homo sapiens, UniProt O00238); settings: kinase BMPR1B (Entrez BMPR1B)
T22 construct: purchased Eurofin/DiscoverX
Summary of the method: as §1

[23] = biological target: T23, 384 kinases from the human genome (Homo sapiens, UniProt Q96L34); settings: kinase MARK4 (Entrez MARK4)
T23 construct: purchased Eurofin/DiscoverX
Summary of the method: as §1

[24] = biological target: T24, 384 kinases from the human genome (Homo sapiens, UniProt Q13163); settings: kinase MEK5 (Entrez MAP2K5)
T24 construct: purchased Eurofin/DiscoverX
Summary of the method: as §1

[25] = biological target: T25, 384 kinases from the human genome (Homo sapiens, UniProt Q6PHR2); settings: kinase ULK3 (Entrez ULK3)
T25 construct: purchased Eurofin/DiscoverX
Summary of the method: as §1

[26] = biological target: T26, 384 kinases from the human genome (Homo sapiens, UniProt Q13233); settings: kinase MAP3K1 (Entrez MAP3K1)
T26 construct: purchased Eurofin/DiscoverX
Summary of the method: as §1

T23 sequence (Q96L34 whole entry): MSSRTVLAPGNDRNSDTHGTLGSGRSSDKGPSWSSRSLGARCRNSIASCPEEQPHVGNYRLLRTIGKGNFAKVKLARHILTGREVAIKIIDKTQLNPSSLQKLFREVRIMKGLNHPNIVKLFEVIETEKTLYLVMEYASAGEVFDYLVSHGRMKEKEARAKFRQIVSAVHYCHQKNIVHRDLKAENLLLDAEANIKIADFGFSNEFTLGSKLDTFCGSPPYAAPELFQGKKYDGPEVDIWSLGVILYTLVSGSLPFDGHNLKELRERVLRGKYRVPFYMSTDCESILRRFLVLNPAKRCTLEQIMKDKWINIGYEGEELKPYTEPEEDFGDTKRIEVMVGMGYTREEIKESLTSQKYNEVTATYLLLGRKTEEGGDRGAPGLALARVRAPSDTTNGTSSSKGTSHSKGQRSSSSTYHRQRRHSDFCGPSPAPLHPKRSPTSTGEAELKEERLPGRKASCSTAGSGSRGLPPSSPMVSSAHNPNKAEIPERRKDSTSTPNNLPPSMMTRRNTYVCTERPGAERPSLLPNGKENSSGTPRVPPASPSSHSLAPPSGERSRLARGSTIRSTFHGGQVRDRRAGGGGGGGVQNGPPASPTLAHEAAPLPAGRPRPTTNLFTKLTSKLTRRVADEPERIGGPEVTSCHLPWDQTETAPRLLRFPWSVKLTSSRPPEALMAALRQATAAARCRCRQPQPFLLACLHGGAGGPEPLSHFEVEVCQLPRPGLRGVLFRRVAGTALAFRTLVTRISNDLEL
T18 sequence (P42679 whole entry): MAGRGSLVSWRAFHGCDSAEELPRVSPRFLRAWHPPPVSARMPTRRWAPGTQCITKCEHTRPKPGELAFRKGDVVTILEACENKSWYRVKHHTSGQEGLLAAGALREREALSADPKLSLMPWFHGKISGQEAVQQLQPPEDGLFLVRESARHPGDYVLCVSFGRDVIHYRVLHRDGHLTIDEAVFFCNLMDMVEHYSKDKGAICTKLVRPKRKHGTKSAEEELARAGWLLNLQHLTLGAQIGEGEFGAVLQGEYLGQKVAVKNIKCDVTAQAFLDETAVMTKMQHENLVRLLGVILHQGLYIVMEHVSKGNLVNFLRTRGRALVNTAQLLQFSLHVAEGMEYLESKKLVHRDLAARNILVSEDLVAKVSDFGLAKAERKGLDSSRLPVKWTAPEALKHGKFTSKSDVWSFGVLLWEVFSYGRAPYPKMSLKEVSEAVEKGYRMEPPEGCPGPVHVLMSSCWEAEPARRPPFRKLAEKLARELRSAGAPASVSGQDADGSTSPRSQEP
T1 sequence (Q9BVS4 whole entry): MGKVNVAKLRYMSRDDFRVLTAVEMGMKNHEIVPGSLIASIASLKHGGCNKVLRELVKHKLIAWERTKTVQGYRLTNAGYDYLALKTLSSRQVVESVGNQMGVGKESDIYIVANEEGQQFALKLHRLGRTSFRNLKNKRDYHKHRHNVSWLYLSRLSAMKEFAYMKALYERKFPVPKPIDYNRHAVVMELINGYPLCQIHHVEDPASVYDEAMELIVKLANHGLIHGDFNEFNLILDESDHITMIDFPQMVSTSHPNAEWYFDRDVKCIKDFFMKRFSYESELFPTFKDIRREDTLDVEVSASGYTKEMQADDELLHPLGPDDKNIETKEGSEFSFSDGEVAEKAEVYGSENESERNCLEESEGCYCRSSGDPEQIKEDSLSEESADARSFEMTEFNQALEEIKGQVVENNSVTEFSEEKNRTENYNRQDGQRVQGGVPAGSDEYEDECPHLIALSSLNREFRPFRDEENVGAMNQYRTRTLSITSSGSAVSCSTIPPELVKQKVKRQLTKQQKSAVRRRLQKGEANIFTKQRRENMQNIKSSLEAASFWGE
T7 sequence (Q13557 whole entry): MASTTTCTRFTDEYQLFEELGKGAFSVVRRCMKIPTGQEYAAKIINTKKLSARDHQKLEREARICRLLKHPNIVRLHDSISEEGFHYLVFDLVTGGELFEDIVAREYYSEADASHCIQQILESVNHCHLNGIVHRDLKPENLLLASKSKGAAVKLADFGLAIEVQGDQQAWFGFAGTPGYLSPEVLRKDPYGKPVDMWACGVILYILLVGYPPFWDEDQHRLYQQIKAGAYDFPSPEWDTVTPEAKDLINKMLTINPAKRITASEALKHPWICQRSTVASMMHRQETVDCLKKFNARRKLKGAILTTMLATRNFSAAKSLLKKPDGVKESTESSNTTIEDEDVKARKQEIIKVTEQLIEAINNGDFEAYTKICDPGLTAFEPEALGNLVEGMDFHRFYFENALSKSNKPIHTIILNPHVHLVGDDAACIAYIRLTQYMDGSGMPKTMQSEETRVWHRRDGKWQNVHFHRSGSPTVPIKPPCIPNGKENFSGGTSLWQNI
T24 sequence (Q13163 whole entry): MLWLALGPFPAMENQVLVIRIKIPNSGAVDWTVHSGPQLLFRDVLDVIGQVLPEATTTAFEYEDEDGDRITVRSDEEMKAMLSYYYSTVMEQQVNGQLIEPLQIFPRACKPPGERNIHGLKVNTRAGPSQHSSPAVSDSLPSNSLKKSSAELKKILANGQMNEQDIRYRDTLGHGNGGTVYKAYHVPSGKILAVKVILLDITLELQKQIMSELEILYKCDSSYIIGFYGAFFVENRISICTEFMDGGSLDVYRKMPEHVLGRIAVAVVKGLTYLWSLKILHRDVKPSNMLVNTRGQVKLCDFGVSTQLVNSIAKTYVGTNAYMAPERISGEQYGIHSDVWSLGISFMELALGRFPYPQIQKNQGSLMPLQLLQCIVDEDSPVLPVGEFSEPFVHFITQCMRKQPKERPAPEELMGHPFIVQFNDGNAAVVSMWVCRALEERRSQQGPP
T25 sequence (Q6PHR2 whole entry): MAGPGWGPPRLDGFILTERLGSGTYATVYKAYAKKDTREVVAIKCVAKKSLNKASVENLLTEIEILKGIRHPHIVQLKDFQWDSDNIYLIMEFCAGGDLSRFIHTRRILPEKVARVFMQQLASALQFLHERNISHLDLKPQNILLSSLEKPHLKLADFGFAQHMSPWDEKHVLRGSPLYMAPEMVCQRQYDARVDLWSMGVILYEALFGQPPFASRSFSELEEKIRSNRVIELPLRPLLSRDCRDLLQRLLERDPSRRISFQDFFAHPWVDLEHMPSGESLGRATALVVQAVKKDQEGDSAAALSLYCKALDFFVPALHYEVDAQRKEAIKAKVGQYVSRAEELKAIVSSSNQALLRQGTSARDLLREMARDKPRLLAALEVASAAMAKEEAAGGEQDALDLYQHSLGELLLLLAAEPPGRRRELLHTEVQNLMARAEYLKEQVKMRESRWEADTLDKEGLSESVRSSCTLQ
T2 sequence (Q9UBF8 whole entry): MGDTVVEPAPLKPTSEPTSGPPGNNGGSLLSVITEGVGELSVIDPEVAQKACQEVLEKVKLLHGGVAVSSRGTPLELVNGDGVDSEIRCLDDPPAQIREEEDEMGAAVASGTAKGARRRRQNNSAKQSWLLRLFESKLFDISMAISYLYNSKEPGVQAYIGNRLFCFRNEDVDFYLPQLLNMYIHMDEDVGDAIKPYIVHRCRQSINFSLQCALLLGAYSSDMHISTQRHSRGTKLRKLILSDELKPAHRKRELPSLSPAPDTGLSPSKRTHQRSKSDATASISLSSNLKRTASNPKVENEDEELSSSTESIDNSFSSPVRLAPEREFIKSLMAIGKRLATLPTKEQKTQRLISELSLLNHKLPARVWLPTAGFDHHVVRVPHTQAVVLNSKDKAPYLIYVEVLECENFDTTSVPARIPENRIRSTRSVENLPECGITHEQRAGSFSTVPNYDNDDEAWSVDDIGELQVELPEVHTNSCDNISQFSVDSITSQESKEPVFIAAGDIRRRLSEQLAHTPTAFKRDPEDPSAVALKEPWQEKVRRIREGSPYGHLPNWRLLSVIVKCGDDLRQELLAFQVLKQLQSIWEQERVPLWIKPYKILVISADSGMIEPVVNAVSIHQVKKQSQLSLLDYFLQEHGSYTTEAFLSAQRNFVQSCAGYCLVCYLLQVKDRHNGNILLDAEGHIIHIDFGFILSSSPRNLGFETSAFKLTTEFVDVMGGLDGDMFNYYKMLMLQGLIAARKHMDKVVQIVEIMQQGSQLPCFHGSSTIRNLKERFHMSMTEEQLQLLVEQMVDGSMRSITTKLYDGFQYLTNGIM
T10 sequence (Q9NWZ3 whole entry): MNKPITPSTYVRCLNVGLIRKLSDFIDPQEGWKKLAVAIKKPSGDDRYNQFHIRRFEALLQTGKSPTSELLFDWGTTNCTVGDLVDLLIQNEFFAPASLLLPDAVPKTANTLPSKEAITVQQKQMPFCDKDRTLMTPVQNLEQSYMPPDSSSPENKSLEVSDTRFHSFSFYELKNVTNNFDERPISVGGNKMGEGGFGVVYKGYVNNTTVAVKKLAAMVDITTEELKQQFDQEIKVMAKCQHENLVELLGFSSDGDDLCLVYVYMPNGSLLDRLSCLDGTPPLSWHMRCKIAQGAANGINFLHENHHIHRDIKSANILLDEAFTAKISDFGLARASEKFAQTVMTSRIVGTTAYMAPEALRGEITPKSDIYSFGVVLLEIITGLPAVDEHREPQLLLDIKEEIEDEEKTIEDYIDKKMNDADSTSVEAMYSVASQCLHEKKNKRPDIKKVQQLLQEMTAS
T14 sequence (P36897 34-503): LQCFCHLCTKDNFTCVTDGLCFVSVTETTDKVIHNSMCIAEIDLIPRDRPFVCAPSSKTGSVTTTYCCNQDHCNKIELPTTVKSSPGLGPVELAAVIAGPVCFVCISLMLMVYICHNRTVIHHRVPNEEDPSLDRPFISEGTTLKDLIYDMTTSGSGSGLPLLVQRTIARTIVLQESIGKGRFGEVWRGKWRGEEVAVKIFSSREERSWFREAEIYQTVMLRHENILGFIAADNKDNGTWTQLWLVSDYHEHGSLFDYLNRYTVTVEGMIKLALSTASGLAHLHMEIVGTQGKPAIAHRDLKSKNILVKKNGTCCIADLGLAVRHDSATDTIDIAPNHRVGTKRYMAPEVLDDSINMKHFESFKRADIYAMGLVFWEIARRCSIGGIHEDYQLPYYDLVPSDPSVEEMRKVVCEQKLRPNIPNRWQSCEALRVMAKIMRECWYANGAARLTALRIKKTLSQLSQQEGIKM

CC(C)C(=O)N1CCN(c2ccc(NC(=O)c3cc4ccccc4o3)cc2Cl)CC1 [Compound 21]
Percent Control [1]: 100% | Percent Control [2]: 74% | Percent Control [3]: 94% | Percent Control [4]: 100% | Percent Control [5]: 98% | Percent Control [6]: 81% | Percent Control [7]: 92% | Percent Control [8]: 98% | Percent Control [9]: 100% | Percent Control [10]: 76% | Percent Control [11]: 100% | Percent Control [12]: 75% | Percent Control [13]: 98% | Percent Control [14]: 79% | Percent Control [15]: 93% | Percent Control [16]: 79% | Percent Control [17]: 100% | Percent Control [18]: 95% | Percent Control [19]: 76% | Percent Control [20]: 57% | Percent Control [21]: 99% | Percent Control [22]: 82% | Percent Control [23]: 98% | Percent Control [24]: 72% | Percent Control [25]: 87% | Percent Control [26]: 92%
